The record followed here is patent publication US4383113A, “Agricultural sulfonamides” (E. I. Du Pont de Nemours and Company, priority 1981, dated 1983).

Common to all, as to design: key: 0 = no effect, 10 = maximum effect; letter = response symbol
Test [1] has as its system morningglory. In words: Test A pre-emergence. In kind it is in vivo, Ipomoea spp. From the text: (§1) The activity of these compounds was discovered in a number of greenhouse and field tests. The ratings are based on a numerical scale extending from 0=no effect, to 10=maximum effect. The accompanying descriptive symbols have the following meanings:
(§2) Seeds of crabgrass (Digitaria spp.), barnyardgrass (Echinochloa crusgalli), wild oats (Avena fatua), cassia (Cassia tora), morningglory (Ipomoea spp.), cocklebur (Xanthium spp.), sorghum, corn, soybean, rice, wheat and nutsedge tubers (Cyperus rotundus) were planted in a growth medium and treated preemergence with a nonphytotoxic solvent solution of the compounds of Table XII. Other batches of seeds and tubers for all of the foregoing weed and crop plants were planted at the same time as controls. The control plantings were untreated; i.e., neither any compound nor any solvent was applied. At the same time, cotton having five leaves (including cotyledonary ones), bush beans with the third trifoliate leaf expanding, crabgrass with two leaves, barnyardgrass with two leaves, wild oats with two leaves, cassia with three leaves (including cotyledonary ones), morningglory with four leaves (including the cotyledonary ones), cocklebur with four leaves (including the cotyledonary ones), sorghum with four leaves, corn with four leaves, soybean with two cotyledonary leaves, rice with three leaves, wheat with one leaf, and nutsedge with three-five leaves were sprayed with a nonphytotoxic solvent solution of the compounds of Table XII. Other groups of all the same weed and crop plants were sprayed with the same nonphytotoxic solvent so as to provide control plants. Preemergence and postemergence treated plants and controls were maintained in a greenhouse for sixteen days, then all treated plants were compared with their respective controls and rated visually for response to treatment.

The test system of test [2] is cocklebur. In words: Test A pre-emergence. In kind it is in vivo, Xanthium spp.
Excerpt: as §1, §2

For test [3], the system named is cassia. In words: Test A pre-emergence. In kind it is in vivo, Cassia tora.
Excerpt: as §1, §2

Test [4] relates to crabgrass. Kind of test: Test A pre-emergence. In kind it is in vivo, Digitaria spp.
Excerpt: as §1, §2

Test [5] deals with soybean. Kind of test: Test A pre-emergence. In kind it is in vivo.
Excerpt: as §1, §2

Test [6] concerns wheat. Kind of test: Test A pre-emergence. In kind it is in vivo.
Excerpt: as §1, §2

Test [7] relates to wild oats. In words: Test A pre-emergence. In kind it is in vivo, Avena fatua. Particulars: 0.4 kg/ha.
Excerpt: as §1, §2

Test [8] relates to barnyardgrass. Kind of test: Test A pre-emergence. In kind it is in vivo, Echinochloa crusgalli.
Excerpt: as §1, §2

The test system of test [9] is sorghum. Kind of test: Test A pre-emergence. In kind it is in vivo.
Excerpt: as §1, §2

The test system of test [10] is morningglory. In words: Test A post-emergence. Particulars: 0.4 kg/ha. In kind it is in vivo, Ipomoea spp.
Excerpt: as §1, §2

Test [11] concerns cocklebur. In words: Test A post-emergence. The following applies: 0.4 kg/ha. In kind it is in vivo, Xanthium spp.
Excerpt: as §1, §2

Test [12] relates to cassia. Kind of test: Test A post-emergence. In kind it is in vivo, Cassia tora. The following applies: 0.4 kg/ha.
Excerpt: as §1, §2

The test system of a further test is corn. In words: Test A post-emergence. In kind it is in vivo. Particulars: 0.4 kg/ha.
Excerpt: as §1, §2

For test [13], the system named is sorghum. Kind of test: Test A post-emergence. The following applies: 0.4 kg/ha. In kind it is in vivo.
Excerpt: as §1, §2

The subject of test [14] is wheat. In words: Test A post-emergence. In kind it is in vivo. Particulars: 0.4 kg/ha.
Excerpt: as §1, §2

A further test concerns nutsedge. In words: Test A post-emergence. In kind it is in vivo, Cyperus rotundus. The following applies: 0.4 kg/ha.
Excerpt: as §1, §2

For test [15], the system named is crabgrass. Kind of test: Test A post-emergence. In kind it is in vivo, Digitaria spp. The following applies: 0.4 kg/ha.
Excerpt: as §1, §2

Test [16] deals with barnyardgrass. In words: Test A post-emergence. In kind it is in vivo, Echinochloa crusgalli. The following applies: 0.4 kg/ha.
Excerpt: as §1, §2

Test [17] concerns wild oats. In words: Test A post-emergence. In kind it is in vivo, Avena fatua. Particulars: 0.4 kg/ha.
Excerpt: as §1, §2

Test [18] deals with soybean. In words: Test A post-emergence. In kind it is in vivo. Particulars: 0.4 kg/ha.
Excerpt: as §1, §2

For `COC(=O)c1ccccc1S(=O)(=O)NC(=O)Nc1nc(OC)nc(OCC(F)(F)F)n1` [drawing 540], the response rating in the test with morningglory [1] (0.4 kg/ha) is 9G; in the test with cocklebur [2] (0.4 kg/ha) it was 9G; in the test with cassia [3] (0.4 kg/ha), 9G; in the test with crabgrass [4] (0.4 kg/ha), 2G; in the test on soybean [5] (0.4 kg/ha), 9H; with wheat [6] (0.4 kg/ha), 6G.

Turning to `COc1cc(OC)nc(NC(=O)NS(=O)(=O)c2ccccc2C(=O)OC(C)C)n1` [drawing 503], the response rating in the test with morningglory [1] (0.4 kg/ha) is recorded as 9G; in the test on crabgrass [4] (0.4 kg/ha), 8G; with wild oats [7], 7G; with wheat [6] (0.4 kg/ha), 7G.

Consider `COc1cc(C)nc(NC(=O)NS(=O)(=O)c2ccccc2C(=O)OC(C)C)n1` [drawing 504], for which the response rating in the test with morningglory [1] (0.4 kg/ha) amounted to 9H; in the test on crabgrass [4] (0.4 kg/ha) it was 8G; in the test with wild oats [7], 8G; in the test on wheat [6] (0.4 kg/ha), 9G.

Consider `CCC(C)OC(=O)c1ccccc1S(=O)(=O)NC(=O)Nc1nc(C)cc(OC)n1` (stereo not drawn) [drawing 491], for which the response rating with morningglory [1] (0.4 kg/ha) is on record as 9G; in the test on cassia [3] (0.4 kg/ha), 9G; in the test with crabgrass [4] (0.4 kg/ha), 6G; in the test on barnyardgrass [8] (0.4 kg/ha) it was 9H; with sorghum [9] (0.4 kg/ha), 9H; in the test on soybean [5] (0.4 kg/ha) it was 9H. In addition, in the test with wheat [6] (0.4 kg/ha), the response rating is 9G.

As to `COc1cc(OC)nc(NC(=O)NS(=O)(=O)c2ccccc2C(=O)OCCCl)n1` [drawing 487], the response rating in the test with morningglory [1] (0.4 kg/ha) worked out at 9G; in the test with cocklebur [2] (0.4 kg/ha), 9G; in the test on barnyardgrass [8] (0.4 kg/ha), 9H; with wild oats [7] it was 9G; in the test with sorghum [9] (0.4 kg/ha), 9H; in the test on soybean [5] (0.4 kg/ha), 9H. For the same molecule, the response rating with wheat [6] (0.4 kg/ha) was 9G.

As for `C=CCOC(=O)c1ccccc1S(=O)(=O)NC(=O)Nc1nc(C)nc(OC)n1` [drawing 518], the response rating is given as 9G with morningglory [1] (0.4 kg/ha); 9G with cocklebur [2] (0.4 kg/ha); 9G in the test with cassia [3] (0.4 kg/ha); 9H with crabgrass [4] (0.4 kg/ha); 9H in the test with barnyardgrass [8] (0.4 kg/ha); 10H in the test with sorghum [9] (0.4 kg/ha). In addition, the response rating in the test on soybean [5] (0.4 kg/ha) and in the test with wheat [6] (0.4 kg/ha) was 9H each time.

Regarding `COC(=O)c1cc(Cl)ccc1S(=O)(=O)NC(=O)Nc1nc(OC)nc(OC)n1` [drawing 502], the response rating stood at 9G in the test on morningglory [1] (0.4 kg/ha); 9G with cocklebur [2] (0.4 kg/ha); 1C in the test on crabgrass [4] (0.4 kg/ha); 8G in the test with wild oats [7]; 9H in the test on sorghum [9] (0.4 kg/ha); 9H in the test with soybean [5] (0.4 kg/ha). This molecule also displayed a response rating in the test with wheat [6] (0.4 kg/ha) of 1C.

In the case of `CCC(C)OC(=O)c1ccccc1S(=O)(=O)NC(=O)Nc1nc(OC)cc(OC)n1` (stereo not drawn) [drawing 490], the response rating is recorded as 9G in the test on morningglory [1] (0.4 kg/ha); 9G with cocklebur [2] (0.4 kg/ha); 8G in the test on cassia [3] (0.4 kg/ha); 0 with crabgrass [4] (0.4 kg/ha); 9H in the test on barnyardgrass [8] (0.4 kg/ha); 8G with wild oats [7]. The values for the response rating in the test on sorghum [9] (0.4 kg/ha), with soybean [5] (0.4 kg/ha) and with wheat [6] (0.4 kg/ha) were 9G, 8H and 2G, respectively.

With `COc1cc(OC)nc(NC(=O)NS(=O)(=O)c2ccccc2C(=O)OC2CCCCC2)n1` [drawing 431], the response rating is 9C in the test on morningglory [10]; 9C in the test with cocklebur [11]; 1C with cassia [12]; 7H in the test on corn; 8H in the test on sorghum [13]; 1C in the test with wheat [14].

In the case of `COC(=O)c1ccccc1S(=O)(=O)NC(=O)Nc1nc(C)cc(C)n1` [drawing 479], the response rating in the test with morningglory [1] (0.4 kg/ha) stood at 9G; with morningglory [1] (2 kg/ha) it was 9G; in the test with cocklebur [2] (0.4 kg/ha), 9G; with cocklebur [2] (2 kg/ha), 9G; in the test on cassia [3] (0.4 kg/ha) it was 8G; with cassia [3] (2 kg/ha) it was 9G. The response rating in the test with crabgrass [4] (0.4 kg/ha) is 9G; in the test on crabgrass [4] (2 kg/ha), 9G; with barnyardgrass [8] (0.4 kg/ha) it was 9H; in the test with barnyardgrass [8] (2 kg/ha) it was 9H; with soybean [5] (0.4 kg/ha) it was 9H; in the test on soybean [5] (2 kg/ha), 9H. In addition, the response rating in the test with wheat [6] (0.4 kg/ha) and with wheat [6] (2 kg/ha) was 9H each time.

For the molecule `COc1cc(C)nc(NC(=O)NS(=O)(=O)c2ccccc2C(=O)NCc2ccccc2)n1` [drawing 531], the response rating in the test on morningglory [1] (0.4 kg/ha) is 9G; in the test with cocklebur [2] (0.4 kg/ha), 8G; with cassia [3] (0.4 kg/ha), 9G; in the test on barnyardgrass [8] (0.4 kg/ha), 9H; in the test with wild oats [7], 3C; with soybean [5] (0.4 kg/ha), 9H. The molecule also had a response rating in the test on wheat [6] (0.4 kg/ha) of 9H.

As for `COc1nc(NC(=O)NS(=O)(=O)c2ccccc2C(=O)OC(C)C)nc(OC)n1` [drawing 505], the response rating with crabgrass [4] (0.4 kg/ha) amounted to 7G; in the test with wild oats [7], 8G; with wheat [6] (0.4 kg/ha) it was 7G.

Regarding `COC(=O)c1cc(Cl)ccc1S(=O)(=O)NC(=O)Nc1nc(OC)nc(OC)n1` [drawing 435], the response rating with morningglory [10] is reported as 10C; in the test with cocklebur [11], 10C; in the test with nutsedge it was 10C; with crabgrass [15], 1C; in the test on barnyardgrass [16], 3G; with wild oats [17], 0. Moreover, the response rating in the test with corn is 9H; in the test on sorghum [13], 8H; in the test on wheat [14], 0.

As for `COC(=O)c1cc(Cl)ccc1S(=O)(=O)NC(=O)Nc1nc(C)cc(OC)n1` [drawing 501], the response rating in the test on morningglory [1] (0.4 kg/ha) turned out to be 9G; in the test on cocklebur [2] (0.4 kg/ha), 9H; in the test with barnyardgrass [8] (0.4 kg/ha) it was 9H; with wild oats [7] it was 9G; in the test on sorghum [9] (0.4 kg/ha), 9H; with soybean [5] (0.4 kg/ha), 9H. Moreover, the response rating with wheat [6] (0.4 kg/ha) amounted to 8H.

As to `CCCCCCCCCCCCNC(=O)c1ccccc1S(=O)(=O)NC(=O)Nc1nc(C)nc(OC)n1` [drawing 467], the response rating in the test on morningglory [10] came out at 9C; in the test on nutsedge, 9G; in the test on soybean [18], 9C.

As for `COC(=O)c1ccccc1S(=O)(=O)NC(=O)Nc1nc(C)nc(OC)n1` [drawing 482], the response rating in the test on morningglory [1] (0.4 kg/ha) is on record as 9H; in the test with cocklebur [2] (0.4 kg/ha) it was 9G; in the test with cassia [3] (0.4 kg/ha), 9G; in the test on barnyardgrass [8] (0.4 kg/ha) it was 9H; in the test on wild oats [7], 9H; with sorghum [9] (0.4 kg/ha), 9H. The response rating with soybean [5] (0.4 kg/ha) and in the test with wheat [6] (0.4 kg/ha) was 9H in each case.

In the case of `CCOC(=O)c1ccccc1S(=O)(=O)NC(=O)Nc1nc(OC)cc(OC)n1` [drawing 508], the response rating is given as 9G in the test on cocklebur [2] (2 kg/ha); 9G with cassia [3] (2 kg/ha); 9H with crabgrass [4] (2 kg/ha); 9H in the test with barnyardgrass [8] (2 kg/ha); 10H with sorghum [9] (2 kg/ha); 9H in the test with soybean [5] (2 kg/ha). Besides, the response rating in the test on wheat [6] (2 kg/ha) worked out at 9H.

For the molecule `CCOC(=O)c1ccccc1S(=O)(=O)NC(=O)Nc1nc(OC)cc(OC)n1` [drawing 509], the response rating is reported as 9G in the test with cocklebur [2] (0.4 kg/ha); 9G in the test with cassia [3] (0.4 kg/ha); 9H in the test with barnyardgrass [8] (0.4 kg/ha); 9G with wild oats [7]; 9H in the test with sorghum [9] (0.4 kg/ha); 9H with soybean [5] (0.4 kg/ha). Moreover, the response rating with wheat [6] (0.4 kg/ha) stood at 9H.
